Source: article PMC10669052, “Exploring Differences in Pharmacometrics of Rabeprazole between Genders via Population Pharmacokinetic–Pharmacodynamic Modeling” (Biomedicines, 2023)
In brackets after ≈: the same amount, converted by molar mass. Where two headings read alike, the source gives them in different places.

Tests used:
[1] = clinical; conditions: for AUC / AUC(0-inf) / AUCextrap / Cmax / MRT / Tmax / Vd/F / half-life: human, in vivo, po
Procedure: Analysis of biochemical parameters was performed on all subjects participating in the clinical trial and the methods are presented in Supplementary Information S1. Information relating to the selection and progress of clinical trial participants is presented in Supplementary Information S2, and information on the clinical trial design and sampling is presented in Supplementary Information S3. The clinical trial protocol was thoroughly reviewed and officially approved (approval number: MB22-002; approved on 15 February 2022) by the Ministry of Food and Drug Safety (Cheongju-si, Republic of Korea). NCA was used to calculate the rabeprazole pharmacokinetic parameters for males and females before a comparison of rabeprazole pharmacokinetics was performed between genders to determine any significant rabeprazole pharmacokinetic parameters in males and females. Pharmacokinetic parameters calculated by NCA were estimated based on plasma concentration values over time after orally administering a 10 mg rabeprazole enteric-coated tablet. Information on the analytical method applied to quantify rabeprazole among plasma samples is briefly presented in Supplementary Information S4, whereas the methods for calculating pharmacokinetic parameters using NCA are presented in Supplementary Information S5. An additional NCA analysis was performed based on the normalized rabeprazole plasma concentration values for body weight, which is one of the major physiological differences between genders that has been frequently applied in past pharmacokinetic comparative studies between genders, and the results were categorized and compared by gender. The significant differences between genders were compared using a two-tailed t test, with significance determined at a p value of 0.05.
43 Supplementary Information 3
45 Clinical trial design and sampling
46 This bioequivalence investigation was performed as randomized, single-dose, open-label,
47 crossover, and two-way studies (with a washout period of 7 days). Prior to the clinical trial,
49 Minneapolis, MN, USA) installed into a vein on the arm or back of the hand, and 6 mL of blank
50 blood was collected. Then, all subjects were orally administered a single 10 mg rabeprazole
51 enteric-coated tablet along with 150 mL of water. Subjects had fasted for more than 10 h before
52 administration. Blood sampling from subjects was performed at a total of 13 specific time
53 points post-dose: Before administration (0 h) and at 1, 2, 2.5, 3, 3.5, 4, 4.5, 5, 5.5, 6, 7, 8, and
54 10 h after oral administration. The sampling method was as follows: To completely remove the
55 heparinized saline solution remaining in the venous catheter during blood collection,
56 approximately 1 mL of blood was collected and discarded each time, and approximately 6 mL
57 of blood was collected and placed in sodium heparinized vacutainer tubes (BD, Franklin Lakes,
58 NJ, USA) with the subject management number and blood collection time written on them.
59 After each blood draw, a saline solution for injection (containing heparin for injection) was
60 administered to prevent the blood remaining in the intravenous catheter from clotting. The
61 collected blood was centrifuged at 3,000 ×g for 10 min in a centrifuge set at 4 °C, and then
62 approximately 1 mL of plasma was taken, transferred to an Eppendorf tube (Eppendorf, […]

[2] = test system: gastric pH; assay: Pharmacodynamic model (sigmoid Emax with baseline) of gastric pH versus rabeprazole plasma concentration; assay type: in vivo, human; conditions: sigmoid Emax model with baseline fitted to digitized gastric pH vs plasma concentration data
From the text: The pharmacodynamic model was established based on rabeprazole plasma concentration-measured drug efficacy information (quantified using Web-plot-digitizer (version 4.6)), according to the rabeprazole exposure. The efficacy of rabeprazole was indicated by changes in gastric pH, which was related to plasma rabeprazole selectively inhibiting H^+/K^+-ATPase in gastric parietal cells, thereby increasing intragastric pH. Pharmacodynamic predictions for rabeprazole were achieved by structuring the effect compartment related to the rabeprazole pharmacokinetic profile in the central compartment. Simply, the change in the plasma pharmacokinetic profile over time after administering rabeprazole is directly related to the change in drug efficacy. Therefore, it could be expanded and implemented as a pharmacodynamic model, whereby the time–drug effect after exposure to rabeprazole can be quantified. The established and validated population pharmacokinetic model structure and parameter values associated with rabeprazole were fixed as representative values of the population before being expanded into a model to predict the pharmacodynamics of rabeprazole. This was conducted to explore the effect of any differences in the absorption rate of rabeprazole between genders.

[3] = Population pharmacokinetic model (three sequential absorption with Tlag, two-compartment; Phoenix NLME); assay type: in vivo, human; conditions: for CL/F: both sexes, human, plasma, oral, 10 mg, read-out: tvCLc/F (typical value, central compartment clearance) (converted)
Procedure: Construction and analysis of the population pharmacokinetic model for rabeprazole were performed using a non-linear mixed effects model approach using Phoenix NLME (version 8.4, Pharsight, Certara Inc., Princeton, NJ, USA) software. An estimation of population pharmacokinetic parameters for rabeprazole was performed using the first-order conditional estimates method with extended least squares estimation (with ŋ–ε interaction). The development of the rabeprazole population pharmacokinetic model was largely performed in two steps. First, a basic structural model was established that could explain the plasma concentration of rabeprazole following its oral administration. This included a number of basic compartments, whether to reflect the lag time (Tlag) associated with rabeprazole oral absorption, the mechanistic structuring involved in the absorption process (including multiple absorption), or the selection of relevant error models to account for residual and IIV. Thus, in establishing the model, the values obtained using the NCA calculations were reflected as the initial parameter values, which accelerated the convergence of the final parameters and enabled its effective modeling. Second, a search was performed for model-applicable effective covariates relevant to the inter-individual rabeprazole pharmacokinetic variation modeling. This was achieved by applying stepwise candidate covariates to the IIVs of the pharmacokinetic parameters reflected in the model. Gender and individual physiological and biochemical factors were considered potential effective covariates and treated as categorical and continuous data, respectively, before application priorities were determined based on the results of the previous correlation screening. Appropriate models for each step were selected and performed using various statistical significance tools derived from Phoenix NLME, including Akaike’s information criterion (AIC), twice the negative log-likelihood (−2LL), and goodness-of-fit (GOF) plots, whereas the significance of the total number of parameters applied to the model (increased or decreased degrees of freedom) was also considered. Significance was determined using a Chi-square distribution p value of 0.05 (for forward selection) and 0.01 (for backward elimination) at −2LL and objective function value (OFV). The adequacy of the rabeprazole population pharmacokinetic model was verified using GOF (including distribution of residuals), visual predictive check (VPC), and bootstrapping processes. Approaches to each tool for model verification are presented in Supplementary Information S6.
The structure of the rabeprazole population pharmacokinetic model can be explained as two compartments, each with three sequential first-order absorption and Tlag values. As for the basic compartments, significant model improvements (−2LL reduction of p < 0.05 and/or 0.01) were confirmed in two-compartment structures rather than in one, whereas the −2LL increased in three- or more compartment structures alongside the total number of parameters. As a result, the plasma rabeprazole concentration profiles could be explained by its distribution in the central and peripheral compartments with two kinetics in the body. Regarding the delayed absorption pattern of rabeprazole during the absorption phase, several structural absorption compartment models have been attempted, such as the Tlag reflection model, the non-sequential two absorption model (having two or more absorption points with consideration of bioavailability), and the sequential absorption model (via the application of two or more absorption rate constant parameters between successive absorption compartments). In addition, mathematical transformation models, such as Weibull absorption, saturation, zero-order, and mean transit time (MTT) have also been attempted. […]

[4] = final population PK model, Estimate
[5] = population PK model estimate as quoted in text

COCCCOc1ccnc(C[S+]([O-])c2nc3ccccc3[nH]2)c1C (centres unmarked) [rabeprazole, Rabeprazole]
AUC ([1]; both, 10 mg): 432 ± 166 ng·h/mL | AUC(0-inf) ([1]; both, 10 mg): 456 ± 174 ng·h/mL | AUCextrap ([1]; both, 10 mg): 5.07 ± 9.42% | Cmax ([1]; both, 10 mg): 236.57 ± 97.86 ng/mL | MRT ([1]; both, 10 mg): 4.79 ± 1.7 h | Tmax ([1]; both, 10 mg): 3.71 ± 1.22 h | Vd/F ([1]; both, 10 mg): 53.9 ± 27.3 L | half-life ([1]; both, 10 mg): 1.55 ± 0.54 h | Tmax ([1]; female): 4.1 ± 1.15 h | AUC ([1]; female, 10 mg): 424 ± 176 ng·h/mL | AUC(0-inf) ([1]; female, 10 mg): 453 ± 181 ng·h/mL | AUCextrap ([1]; female, 10 mg): 4.38 ± 7.82% | Cmax ([1]; female, 10 mg): 260 ± 113 ng/mL | MRT ([1]; female, 10 mg): 5.25 ± 1.97 h | Vd/F ([1]; female, 10 mg): 54.3 ± 38.1 L | half-life ([1]; female, 10 mg): 1.48 ± 0.64 h | AUC ([1]; male, 10 mg): 439 ± 161 ng·h/mL | AUC(0-inf) ([1]; male, 10 mg): 459 ± 172 ng·h/mL | AUCextrap ([1]; male, 10 mg): 3.84 ± 4.01% | Cmax ([1]; male, 10 mg): 216 ± 79.6 ng/mL | MRT ([1]; male, 10 mg): 4.4 ± 1.36 h | Tmax ([1]; male, 10 mg): 3.38 ± 1.21 h | Vd/F ([1]; male, 10 mg): 53.5 ± 12.8 L | half-life ([1]; male, 10 mg): 1.6 ± 0.44 h | AUCinf (plasma concentrations normalized by body weight) ([1]; single oral 10 mg enteric-coated tablet, NCA, body weight normalized, Total (n = 45), mean ± SD): 7.17 ± 3.34 ng·h/mL/kg | EC50 ([2]; Homo sapiens, read-out: EC50 (plasma rabeprazole concentration required to achieve 50% of the Emax)): 0.0516 µg/mL (≈ 0.143 µM) | E0 (basal pH effect in the stomach that occurs without rabeprazole) [2]: 2.50 | Emax (maximal effect of increasing gastric pH by plasma rabeprazole level) [2]: 4.72 | γ (sigmoidicity factor) [2]: 5.04 | dKa3dBSA (quantitative correlation value between Ka3 and body surface area) ([3]; Bootstrap (n = 1000) Median): −0.95 | dTlagdGender (quantitative correlation value between Tlag and gender) ([3]; Bootstrap (n = 1000) Median): 0.67 | tvCLp/F (typical value, peripheral compartment clearance) ([3]; Bootstrap (n = 1000) Median): 5.38 L/h | tvKa1 (first sequential absorption rate constant) ([3]; Bootstrap (n = 1000) Median): 1.89 h⁻¹ | tvKa2 (second sequential absorption rate constant) ([3]; Bootstrap (n = 1000) Median): 2.03 h⁻¹ | tvKa3 (third sequential absorption rate constant) ([3]; Bootstrap (n = 1000) Median): 3.26 h⁻¹ | tvTlag (typical value, lag time) ([3]; Bootstrap (n = 1000) Median): 1.55 h | tvVc/F (typical value, central compartment distribution volume) ([3]; Bootstrap (n = 1000) Median): 10.06 L | tvVp/F (typical value, peripheral compartment distribution volume) ([3]; Bootstrap (n = 1000) Median): 11.30 L | ε (residual error) ([3]; Bootstrap (n = 1000) Median): 0.35 | ω^2CLc/F (inter-individual variability) ([3]; Bootstrap (n = 1000) Median): 0.14 | ω^2Ka1 (inter-individual variability) ([3]; Bootstrap (n = 1000) Median): 0.00 | ω^2Ka2 (inter-individual variability) ([3]; Bootstrap (n = 1000) Median): 0.00 | ω^2Ka3 (inter-individual variability) ([3]; Bootstrap (n = 1000) Median): 1.82 | ω^2Tlag (inter-individual variability) ([3]; Bootstrap (n = 1000) Median): 0.23 | ω^2Vc/F (inter-individual variability) ([3]; Bootstrap (n = 1000) Median): 1.55 | CL/F ([3]; Bootstrap (n = 1000) Median): 424 mL/min | CL/F [3, 4]: 428 mL/min | dKa3dBSA (quantitative correlation value between Ka3 and body surface area) [3, 4]: −1.11 | tvCLp/F (typical value, peripheral compartment clearance) [3, 4]: 5.45 L/h | tvKa1 (first sequential absorption rate constant, dosing depot–depot 1) [3, 4]: 1.91 h⁻¹ | tvKa2 (second sequential absorption rate constant, depot 1–depot 2) [3, 4]: 2.43 h⁻¹ | tvKa3 (third sequential absorption rate constant, depot 2–central compartment) [3, 4]: 3.34 h⁻¹ | tvTlag (typical value, lag time) [3, 4]: 1.56 h | tvVc/F (typical value, central compartment distribution volume) [3, 4]: 10.31 L | tvVp/F (typical value, peripheral compartment distribution volume) [3, 4]: 11.46 L | ω^2CLc/F (inter-individual variability) [3, 4]: 0.14 | ω^2Ka1 (inter-individual variability) [3, 4]: 0.00 | ω^2Ka2 (inter-individual variability) [3, 4]: 0.00 | ω^2Ka3 (inter-individual variability) [3, 4]: 1.74 | ω^2Tlag (inter-individual variability) [3, 4]: 0.23 | ω^2Vc/F (inter-individual variability) [3, 4]: 2.04 | dTlagdGender (quantitative correlation value between Tlag and gender) ([3]; final population PK model, Estimate, female = 1, male = 0): 0.73 | ε (residual error) ([3]; final population PK model, Estimate, log-additive error model): 0.37 | Vc/F estimate [3, 5]: 10.3 L | Vp/F estimate [3, 5]: 11.5 L
